Key:
HepG2 [1] = experiment: drug sensitivity score (DSS) for viability; higher = more toxic; extreme values may be limits of the assay; details: 72 h
Calu-3 [2] = experiment: as above; details: 72 h
Vero E6 [3] = experiment: as above; details: 72 h
U2OS [4] = experiment: as above; details: 72 h
[5] = test system: A549-ACE2 infected with SARS-CoV-2; experiment: morphology score (similarity to uninfected cells); higher = more like uninfected cells; details: 24 h
[6] = test system: A549-ACE2 infected with SARS-CoV-2; experiment: SARS-CoV-2 infection rate relative to DMSO; higher = more infection; details: 24 h
Calu-3 [7] = experiment: relative viability EC50 (midpoint between 100% and the lowest measured viability); higher = less toxic; details: 72 h
Vero E6 [8] = experiment: as above; details: 72 h
[9] = test system: A549-ACE2 infected with SARS-CoV-2; experiment: cell count relative to DMSO; higher = less toxic; details: 24 h
HepG2 [10] = experiment: cell viability relative to DMSO; higher = less toxic; details: 72 h
Calu-3 [11] = experiment: as above; details: 72 h
Vero E6 [12] = experiment: as above; details: 72 h
U2OS [13] = experiment: as above; details: 72 h
Caco-2 [14] = experiment: drug sensitivity score (DSS) for viability; higher = more toxic; extreme values may be limits of the assay; details: 72 h
HepG2 [15] = experiment: relative viability EC50 (midpoint between 100% and the lowest measured viability); higher = less toxic; details: 72 h
Caco-2 [16] = experiment: as above; details: 72 h
U2OS [17] = experiment: as above; details: 72 h
Caco-2 [18] = experiment: cell viability relative to DMSO; higher = less toxic; details: 72 h

COc1ccc(C(=O)/C(Cc2cc(OC)c(OC)c(OC)c2)=C(\C(=O)O)c2ccc3c(c2)OCO3)cc1
Details	drug sensitivity score	relative viability EC50 [µM]
Calu-3 [2]	0	–
Calu-3 [7]	–	> 10
HepG2 [1]	2.4	–
U2OS [4]	2.8	–
Vero E6 [3]	0	–
Vero E6 [8]	–	> 10

Details	SARS-CoV-2 infection rate, [6] [%]	cell count, [9] [%]	cell viability, Calu-3 [11] [%]	cell viability, HepG2 [10] [%]	cell viability, U2OS [13] [%]	cell viability, Vero E6 [12] [%]	morphology score, [5]
1 nM	–	–	91.9	102	98.9	97.1	–
10 nM	–	–	87.6	93.9	94.9	101	–
100 nM	–	–	101	95.3	97.7	104	–
0.3 µM	101	98	–	–	–	–	-0.18
1000 nM	–	–	101	95.2	96.2	109	–
3 µM	95	104	–	–	–	–	0.12
10 µM	42	82	–	–	–	–	0.6
10000 nM	–	–	94.1	65.2	57.6	104	–
30 µM	16	22	–	–	–	–	0.36

CC(C)C(N)C(=O)O (stereo in doubt) [L-valine]
Details	drug sensitivity score	relative viability EC50 [µM]
Caco-2 [14]	0	–
Caco-2 [16]	–	> 10
Calu-3 [2]	0	–
Calu-3 [7]	–	> 10
HepG2 [1]	0	–
HepG2 [15]	–	> 10
U2OS [4]	0	–
U2OS [17]	–	> 10
Vero E6 [3]	0	–
Vero E6 [8]	–	> 10

cell viability [%]
Details	Caco-2 [18]	Calu-3 [11]	HepG2 [10]	U2OS [13]	Vero E6 [12]
1 nM	96	102	94.8	101	96.8
10 nM	91.3	105	94.5	92.7	96.7
100 nM	100	95.9	99	98.1	96.6
1000 nM	98.7	93	96.9	93.5	92.3
10000 nM	102	99	99.3	102	95.5

CC(C)C(=O)c1ccc(O)c(O)c1 [U-0521]
Details	drug sensitivity score	relative viability EC50 [µM]
Caco-2 [14]	0.5	–
Caco-2 [16]	–	> 10
Calu-3 [2]	0	–
Calu-3 [7]	–	> 10
HepG2 [1]	0	–
HepG2 [15]	–	> 10
U2OS [4]	0	–
U2OS [17]	–	> 10
Vero E6 [3]	0	–
Vero E6 [8]	–	> 10

cell viability [%]
Details	Caco-2 [18]	Calu-3 [11]	HepG2 [10]	U2OS [13]	Vero E6 [12]
1 nM	98.6	102	96.3	99.8	108
10 nM	102	96.9	77.3	95.4	104
100 nM	101	102	109	100	102
1000 nM	88	94.4	114	97.3	97.6
10000 nM	97	97.4	105	93.6	92.9

CNC(=O)c1cc(COc2nnc(Nc3ccc(Cl)cc3)c3ccoc23)ccn1 [telatinib]
Details	drug sensitivity score	relative viability EC50 [µM]
Caco-2 [14]	0	–
Caco-2 [16]	–	> 10
Calu-3 [2]	0	–
Calu-3 [7]	–	> 10
HepG2 [1]	0	–
HepG2 [15]	–	> 10
U2OS [4]	0	–
U2OS [17]	–	> 10
Vero E6 [3]	0	–
Vero E6 [8]	–	> 10

cell viability [%]
Details	Caco-2 [18]	Calu-3 [11]	HepG2 [10]	U2OS [13]	Vero E6 [12]
1 nM	96.6	106	85.9	101	92.7
10 nM	95.4	106	106	97.6	95.5
100 nM	99.3	98.8	97.7	101	92.1
1000 nM	97.2	96.6	101	98	93.3
10000 nM	98.8	104	114	92.4	102

Cc1cc(C)cc(NC(=O)Nc2ccc(OS(N)(=O)=O)cc2)c1 [S4]
Details	drug sensitivity score	relative viability EC50 [µM]
Caco-2 [14]	0	–
Caco-2 [16]	–	> 10
Calu-3 [2]	0	–
Calu-3 [7]	–	> 10
HepG2 [1]	0	–
HepG2 [15]	–	> 10
U2OS [4]	0	–
U2OS [17]	–	> 10
Vero E6 [3]	0	–
Vero E6 [8]	–	> 10

cell viability [%]
Details	Caco-2 [18]	Calu-3 [11]	HepG2 [10]	U2OS [13]	Vero E6 [12]
1 nM	105	104	107	102	102
10 nM	97.6	104	99.3	96.9	103
100 nM	99.3	92.7	104	100	103
1000 nM	87.4	100	108	98.1	103
10000 nM	101	89.5	97.2	99	96.6

O=C(NCc1ccc2c(c1)OCO2)c1c(Cl)cccc1Cl [alda-1]
Details	drug sensitivity score	relative viability EC50 [µM]
Caco-2 [14]	0	–
Caco-2 [16]	–	> 10
Calu-3 [2]	0	–
Calu-3 [7]	–	> 10
HepG2 [1]	0	–
HepG2 [15]	–	> 10
U2OS [4]	0	–
U2OS [17]	–	> 10
Vero E6 [3]	0	–
Vero E6 [8]	–	> 10

cell viability [%]
Details	Caco-2 [18]	Calu-3 [11]	HepG2 [10]	U2OS [13]	Vero E6 [12]
1 nM	93	91.7	92	103	94.2
10 nM	91.3	100	105	99.8	105
100 nM	100	109	99.8	99	98.8
1000 nM	93.1	102	101	100	91.2
10000 nM	99.1	108	95.9	100	98.3

CN(CCc1ccc(Cl)c(Cl)c1)CCN1CCCC1 [BD-1008]
Details	drug sensitivity score	relative viability EC50 [µM]
Caco-2 [14]	0	–
Caco-2 [16]	–	> 10
Calu-3 [2]	0	–
Calu-3 [7]	–	> 10
HepG2 [1]	0	–
HepG2 [15]	–	> 10
U2OS [4]	0	–
U2OS [17]	–	> 10
Vero E6 [3]	0	–
Vero E6 [8]	–	> 10

cell viability [%]
Details	Caco-2 [18]	Calu-3 [11]	HepG2 [10]	U2OS [13]	Vero E6 [12]
1 nM	101	95.8	91.5	97.4	100
10 nM	96.7	98.5	107	96.5	96.2
100 nM	95.5	94.6	104	97	94.2
1000 nM	93.8	96.9	117	93.2	95
10000 nM	94.2	101	106	93.3	106

From the supplement of paper PMC13380429
